The text below walks through data of publication PMC12073189, “Synthesis and Evaluation of a Novel Zuranolone Analog with High GABAA Receptor PAM Activity and Excellent Pharmacokinetic Profiles” (Molecules, 2025).

Several values for one entry are separate records, joined by “and”; a condition that tells them apart may be missing. Equal entries are not always repeated. Entries after “also recorded” stand apart in the source; their conditions may differ. Where two headings read alike, the source gives them in different places. Where only a bound is given, the exact number is not on record here.

One series relates to loss of righting reflex. Description: Loss of righting reflex (LORR) test. The conditions noted are these: rats; for LORR threshold dose: intragastric. The format is in vivo, rat. The protocol:
We randomly assigned rats into 6 groups (n = 10): Zuranolone groups at doses of 9.8, 15.6, and 19.5 μmol/kg and S9 groups at doses of 38.9, 48.6, and 58.3 μmol/kg. The number of animals showing LORR, defined as the inability to turn over within 30 s while in the supine position, was recorded within 4 h following intragastric administration of the test drugs or vehicle.

The next series concerns the target T1, CYP2C8 (Homo sapiens, UniProt P10632).
T1 construct: tissue XenoTech; host or cells: pooled human liver microsomes
T1 sequence (P10632 1-490): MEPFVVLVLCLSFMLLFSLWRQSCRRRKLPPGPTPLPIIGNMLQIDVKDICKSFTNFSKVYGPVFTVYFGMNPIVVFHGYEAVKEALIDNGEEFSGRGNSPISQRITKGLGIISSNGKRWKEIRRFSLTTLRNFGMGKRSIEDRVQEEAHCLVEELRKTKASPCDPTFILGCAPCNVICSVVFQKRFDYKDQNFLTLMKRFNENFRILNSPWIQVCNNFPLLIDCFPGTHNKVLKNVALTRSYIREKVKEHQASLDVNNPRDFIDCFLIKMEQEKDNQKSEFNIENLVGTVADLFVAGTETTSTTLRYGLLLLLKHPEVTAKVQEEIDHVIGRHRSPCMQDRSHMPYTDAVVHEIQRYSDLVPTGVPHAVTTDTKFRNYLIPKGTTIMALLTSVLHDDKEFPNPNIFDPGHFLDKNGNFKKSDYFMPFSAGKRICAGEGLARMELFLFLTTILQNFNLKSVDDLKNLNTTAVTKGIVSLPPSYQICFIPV
The series can be described thus: Human liver CYP inhibition assay (cocktail, pooled HLM). The format is in vitro ADME. The protocol: (§1) The main materials used in this experiment were sourced as follows: Zuranolone from BEIWANTABIO Co., Ltd. (Shanghai, China); liver microsomes (rat and human) and CYP isoenzymes (CYP1A2, CYP2C8, CYP2D6, CYP3A4) from XenoTech (Tewksbury, MA, USA); LTK cells from the China Center for Type Culture Collection (CCTCC, Wuhan, China); and CHO cells from the National Certified Cell Bank (Shanghai, China).
(§2) The IC50 values of S9 and Zuranolone on CYP isoenzymes (1A2, 2C8, 2D6, 3A4) were determined in pooled HLM using a cocktail approach, as previously reported.

A further series deals with T2, CYP3A4 (Homo sapiens, UniProt P08684).
T2 construct: tissue XenoTech; host or cells: pooled human liver microsomes
T2 sequence (P08684 whole entry): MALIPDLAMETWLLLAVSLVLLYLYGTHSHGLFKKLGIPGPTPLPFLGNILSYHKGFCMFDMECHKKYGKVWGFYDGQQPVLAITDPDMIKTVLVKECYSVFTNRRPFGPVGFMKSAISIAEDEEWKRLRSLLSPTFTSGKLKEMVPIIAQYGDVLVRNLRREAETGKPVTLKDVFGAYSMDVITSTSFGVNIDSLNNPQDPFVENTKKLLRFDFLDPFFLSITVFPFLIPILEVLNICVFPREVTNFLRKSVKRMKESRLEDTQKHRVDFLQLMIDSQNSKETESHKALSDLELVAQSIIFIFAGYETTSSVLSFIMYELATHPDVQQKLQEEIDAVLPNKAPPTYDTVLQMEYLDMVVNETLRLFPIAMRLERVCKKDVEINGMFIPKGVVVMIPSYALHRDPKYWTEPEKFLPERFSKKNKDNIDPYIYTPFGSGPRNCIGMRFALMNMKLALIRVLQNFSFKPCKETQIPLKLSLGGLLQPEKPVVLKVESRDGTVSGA
The series is described as above. The format is in vitro ADME. The protocol: as §1, §2

Another series has as its target T3, CYP1A2 (Homo sapiens, UniProt P05177).
T3 construct: tissue XenoTech; host or cells: pooled human liver microsomes
T3 sequence (P05177 1-516): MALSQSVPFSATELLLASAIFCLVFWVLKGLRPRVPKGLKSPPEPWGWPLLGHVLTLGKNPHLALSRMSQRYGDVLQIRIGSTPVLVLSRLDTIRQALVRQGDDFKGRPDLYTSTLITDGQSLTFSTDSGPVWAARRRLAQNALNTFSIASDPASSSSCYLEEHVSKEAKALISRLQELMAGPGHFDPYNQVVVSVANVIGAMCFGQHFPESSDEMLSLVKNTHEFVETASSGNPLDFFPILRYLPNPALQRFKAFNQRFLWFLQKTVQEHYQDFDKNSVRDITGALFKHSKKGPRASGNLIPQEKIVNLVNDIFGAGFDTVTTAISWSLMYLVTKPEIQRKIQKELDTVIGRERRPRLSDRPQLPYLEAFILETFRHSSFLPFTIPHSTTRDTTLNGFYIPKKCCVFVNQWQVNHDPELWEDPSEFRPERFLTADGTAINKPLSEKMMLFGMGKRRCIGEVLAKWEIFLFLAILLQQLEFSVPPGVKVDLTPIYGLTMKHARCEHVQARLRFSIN
The series is described as above. The format is in vitro ADME. Here is the method: as §1, §2

The next series concerns the target T4, CYP2D6 (Homo sapiens, UniProt P10635).
T4 construct: tissue XenoTech; host or cells: pooled human liver microsomes
The description is as above. The format is in vitro ADME. Here is the method:
as §1, §2

Series [1] is described as follows: Brain distribution in rats. The conditions noted are these: i.g. 24.4 μmol/kg. The format is in vivo, rat. The protocol:
We quantified S1–S15 and Zuranolone using a UPLC-MS/MS (Agilent 1290 Infinity II UHPLC (Agilent Technologies, Santa Clara, CA, USA) coupled with a QTRAP 5500 MS/MS (ESI source) (SCIEX, Redwood City, CA, USA for MS/MS). The method assessed the content level of S9 and Zuranolone in microsome metabolism and in rat brain tissue and plasma. An ACQUITY UPLC Peptide BEH C18 column (Waters; 50 × 2.1 mm, 1.7 μm; 60 °C; Waters Corporation, Milford, MA, USA) was used with a mobile phase of 0.02% propionic acid in water (A) and acetonitrile (B). The gradient elution of the mobile phase B is carried out as follows: it is 10% from 0 to 0.5 min, 90% from 0.8 to 2.5 min, and 10% from 2.8 to 3.5 min, with a flow rate of 0.40 mL/min. Quantitative analysis was performed on a QTRAP 5500 MS (SCIEX, Redwood City, CA, USA) in positive ionization mode with MRM (multiple reaction monitoring), using progesterone-d9 as the internal standard. MRM transitions and parameters were optimized for each analyte, with collision energies of 25 V (S1–S15), 23 V (Zuranolone), and 30 V (IS), and declustering potentials of 80 V (S1–S15), 90 V (Zuranolone), and 180 V (IS). Other conditions were as follows: curtain gas 10 psi, collision gas ‘medium’, ion spray voltage 5500 V, temperature 500 °C, and ionization source gases 1 and 2 at 50 psi.
Zuranolone was solubilized in 5% DMSO with solutol HS 15 in saline. S9 was solubilized in 10% DMSA with 30% SBECD (Zibo Qianhui Biological Technology Co., Ltd., Zibo, China) in saline. After fasting for 12 h, rats (n = 6 per group) were administered Zuranolone and S9 intragastrically (i.g.) at a dose of 24.4 μmol/kg, and intravenously (i.v.) at 6.1 μmol/kg. Blood samples (200 μL) were collected into 1.5 mL tubes containing heparin at 15 min, 30 min, 1, 2, 3, 4, 6, 8, 12, 24, 48, and 96 h after i.g. or at 5, 15, 30 min, and 1, 2, 3, 4, 6, 8, 12, 24, 48, 96 h after i.v. Plasma was separated by centrifugation for 5 min (8000 rpm, 4 °C) and stored at −80 °C immediately.

T4 sequence (P10635 whole entry): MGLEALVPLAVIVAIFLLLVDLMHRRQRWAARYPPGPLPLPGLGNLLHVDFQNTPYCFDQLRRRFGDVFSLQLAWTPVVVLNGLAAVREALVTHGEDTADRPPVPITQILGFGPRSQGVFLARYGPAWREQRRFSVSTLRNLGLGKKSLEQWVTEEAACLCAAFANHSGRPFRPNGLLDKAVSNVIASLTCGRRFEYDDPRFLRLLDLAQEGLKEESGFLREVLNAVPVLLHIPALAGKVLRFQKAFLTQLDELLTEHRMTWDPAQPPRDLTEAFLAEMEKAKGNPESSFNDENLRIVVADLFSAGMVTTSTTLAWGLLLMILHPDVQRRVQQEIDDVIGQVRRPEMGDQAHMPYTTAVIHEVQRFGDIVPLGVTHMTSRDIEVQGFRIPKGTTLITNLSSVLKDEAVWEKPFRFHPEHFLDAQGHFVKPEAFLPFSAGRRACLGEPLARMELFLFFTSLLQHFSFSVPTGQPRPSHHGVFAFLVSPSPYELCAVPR

As for `C[C@@]1(O)CC[C@H]2[C@H](CC[C@@H]3[C@@H]2CC[C@]2(C)[C@@H](C(=O)Cn4cnn(-c5ccnc(OCC(F)(F)F)c5)c4=O)CC[C@@H]32)C1` [S9], the “Latency to LORR” value in the series on loss of righting reflex (i.g. 48.6 μmol/kg) was determined as 68 min; in the series on loss of righting reflex (i.g. 58.3 μmol/kg), 59 min. The compound also yielded an LORR threshold dose with loss of righting reflex of 38.9 µmol/kg. The IC50 is more than 30 µM at CYP2C8 (human liver CYP isoenzymes, pooled HLM, read-out: CYP IC50: 2C8); more than 30 µM at CYP3A4 (human liver CYP isoenzymes, pooled HLM, read-out: CYP IC50: 3A4); more than 30 µM at CYP1A2 (human liver CYP isoenzymes, pooled HLM, read-out: CYP IC50: 1A2); more than 30 µM on CYP2D6 (human liver CYP isoenzymes, pooled HLM, read-out: CYP IC50: 2D6). Besides, the “AUCBrain 0–t” value in series [1] was 30,969 nmol/kg·h and 30,969 ± 8450 nmol/kg·h. Moreover, the “F AUCBrain 0–t S9/Zuranolone (relative brain bioavailability)” value in series [1] is 324%. In addition, the Brain concentration is 189 nmol/kg and 189 ± 30 nmol/kg in series [1] (0.5 h); 1895 ± 593 nmol/kg in series [1] (2 h); 2132 nmol/kg and 2132 ± 683 nmol/kg in series [1] (6 h); 175 nmol/kg and 175 ± 35 nmol/kg in series [1] (24 h).

In the case of `C[C@@]1(O)CC[C@H]2[C@H](CC[C@@H]3[C@@H]2CC[C@]2(C)[C@@H](C(=O)Cn4cc(C#N)cn4)CC[C@@H]32)C1` [Zuranolone], the “Latency to LORR” value in the series with loss of righting reflex (i.g. 15.6 μmol/kg) is on record as 35 min; in the series on loss of righting reflex (i.g. 19.5 μmol/kg), 30 min. The compound further gave an LORR threshold dose in the series on loss of righting reflex of 9.8 µmol/kg. For the same compound, the IC50 against CYP2C8, against CYP3A4, against CYP1A2 and at CYP2D6 was more than 30 µM throughout. In addition, the “AUCBrain 0–t” value in series [1] was 9549 nmol·h/kg and 9549 ± 2529 nmol·h/kg. In addition, the Brain concentration in series [1] (0.5 h) is 3103 nmol/kg and 3103 ± 795 nmol/kg; in series [1] (2 h), 2220 ± 574 nmol/kg; in series [1] (6 h) it was 193 nmol/kg and 193 ± 56 nmol/kg; in series [1] (24 h), “below the quantification limit (BQL); also recorded: BQL ^b”.

The IC50 is the point on the concentration scale where inhibition reaches its midpoint.
